# Data from ChEMBL document CHEMBL3885861, “Open TG-GATES”.
# Organism: Rattus norvegicus
# Assay: Open TG-GATES - Regimen: Daily Repeat
# Format: toxicity, organism-based, Sprague-Dawley
# Design: regimen Daily Repeat, gender Male, age 6 weeks
# Conditions: in vivo, po, route gavage; for Bas / Eos / Fbg / MCHC / Neu / Plat / RBC / Ret / WBC / Lym / MCH / MCV / Mono: tissue Blood; for KIDNEY_L / KIDNEY_R / KIDNEY_TOTAL: tissue Kidney; for LIVER: tissue Liver
# [1] = 0 mg/kg, 72 h, dose level Control, time 3 day
# [2] = 0 mg/kg, 72 h, tissue Plasma, dose level Control, time 3 day
# [3] = 0 mg/kg, […], dose level Control, time 14 day
# [4] = 0 mg/kg, […], dose level Control, time 28 day
# [5] = 0 mg/kg, […], tissue Plasma, dose level Control, time 14 day
# [6] = 0 mg/kg, […], tissue Plasma, dose level Control, time 28 day
# [7] = 1 mg/kg, 72 h, dose level Low, time 3 day
# [8] = 1 mg/kg, 72 h, tissue Plasma, dose level Low, time 3 day
# [9] = 1 mg/kg, […], dose level Low, time 14 day
# [10] = 1 mg/kg, […], dose level Low, time 28 day
# [11] = 1 mg/kg, […], tissue Plasma, dose level Low, time 14 day
# [12] = 1 mg/kg, […], tissue Plasma, dose level Low, time 28 day
structure (smiles),measurement,setting,value
O=C(O)Cc1ccccc1Nc1c(Cl)cccc1Cl [DICLOFENAC],TERMINAL_BW,[1],237.4 g
same,Bas,[1],0%
same,Eos,[1],1%
same,Fbg,[1],222.6 mg/dL
same,MCHC,[1],34.5%
same,Neu,[1],21%
same,Plat,[1],120.1 x10_4/uL
same,RBC,[1],626.6 x10_4/ul
same,Ret,[1],4.9%
same,WBC,[1],105.4 x10_2/uL
same,KIDNEY_L,[1],1 g
same,KIDNEY_R,[1],1 g
same,KIDNEY_TOTAL,[1],2 g
same,ALP,[2],974.8 IU/L
same,AST,[2],65 IU/L
same,CRE,[2],0.4 mg/dL
same,DBIL,[2],0.1 mg/dL
same,GLC,[2],193 mg/dL
same,IP,[2],7.8 mg/dL
same,LDH,[2],163.8 IU/L
same,PL,[2],160.6 mg/dL
same,TBIL,[2],0.2 mg/dL
same,TC,[2],74 mg/dL
same,TG,[2],141 mg/dL
same,TP,[2],5.6 g/dL
same,gamma-GTP,[2],1.2 IU/L
same,TERMINAL_BW,[3],317.2 g
same,TERMINAL_BW,[4],396.3 g
same,Bas,[3],0%
same,Eos,[3],0.8%
same,Fbg,[3],221.6 mg/dL
same,Lym,[3],80.8%
same,MCH,[3],21.5 pg
same,MCHC,[3],35.9%
same,MCV,[3],59.9 fL
same,Mono,[3],2%
same,Plat,[3],106.7 x10_4/uL
same,Ret,[3],4%
same,WBC,[3],92.1 x10_2/uL
same,Bas,[4],0%
same,Fbg,[4],219.8 mg/dL
same,Lym,[4],84.2%
same,MCH,[4],20.1 pg
same,MCHC,[4],36.1%
same,MCV,[4],55.9 fL
same,Neu,[4],11.4%
same,Plat,[4],102.6 x10_4/uL
same,RBC,[4],801.6 x10_4/ul
same,Ret,[4],2.3%
same,WBC,[4],127.9 x10_2/uL
same,KIDNEY_L,[3],1.3 g
same,KIDNEY_R,[3],1.3 g
same,KIDNEY_TOTAL,[3],2.6 g
same,KIDNEY_L,[4],1.4 g
same,KIDNEY_R,[4],1.4 g
same,KIDNEY_TOTAL,[4],2.8 g
same,LIVER,[4],15.7 g
same,ALP,[5],720.8 IU/L
same,ALT,[5],31.2 IU/L
same,CRE,[5],0.4 mg/dL
same,DBIL,[5],0.1 mg/dL
same,GLC,[5],220.2 mg/dL
same,IP,[5],7.2 mg/dL
same,K,[5],3.7 meq/L
same,LDH,[5],170 IU/L
same,Na,[5],140.2 meq/L
same,PL,[5],143.8 mg/dL
same,RALB,[5],3.4 g/dL
same,TBIL,[5],0.2 mg/dL
same,TC,[5],64.2 mg/dL
same,TP,[5],6 g/dL
same,gamma-GTP,[5],1 IU/L
same,ALP,[6],600.6 IU/L
same,AST,[6],57 IU/L
same,CRE,[6],0.5 mg/dL
same,Ca,[6],10.3 mg/dL
same,Cl,[6],101.8 meq/L
same,DBIL,[6],0.1 mg/dL
same,GLC,[6],240.8 mg/dL
same,IP,[6],6.5 mg/dL
same,K,[6],3.5 meq/L
same,LDH,[6],146.4 IU/L
same,Na,[6],140.4 meq/L
same,PL,[6],151.4 mg/dL
same,RALB,[6],3.6 g/dL
same,TBIL,[6],0.2 mg/dL
same,TC,[6],68.8 mg/dL
same,TG,[6],145.6 mg/dL
same,TP,[6],6.3 g/dL
same,gamma-GTP,[6],0.8 IU/L
same,TERMINAL_BW,[7],235.7 g
same,Bas,[7],0%
same,Eos,[7],1%
same,Fbg,[7],217.6 mg/dL
same,Mono,[7],3.4%
same,Plat,[7],125.8 x10_4/uL
same,RBC,[7],633.8 x10_4/ul
same,Ret,[7],5%
same,WBC,[7],89.1 x10_2/uL
same,KIDNEY_L,[7],1 g
same,KIDNEY_R,[7],1 g
same,KIDNEY_TOTAL,[7],2.1 g
same,LIVER,[7],11 g
same,ALP,[8],1075.6 IU/L
same,AST,[8],66 IU/L
same,CRE,[8],0.4 mg/dL
same,DBIL,[8],0.1 mg/dL
same,GLC,[8],190 mg/dL
same,LDH,[8],173.4 IU/L
same,PL,[8],164.2 mg/dL
same,TBIL,[8],0.2 mg/dL
same,TC,[8],75.8 mg/dL
same,TP,[8],5.7 g/dL
same,gamma-GTP,[8],1 IU/L
same,TERMINAL_BW,[9],319.9 g
same,TERMINAL_BW,[10],385.2 g
same,Bas,[9],0%
same,Eos,[9],1%
same,Fbg,[9],224.4 mg/dL
same,Lym,[9],78.4%
same,MCHC,[9],35.7%
same,Plat,[9],114.5 x10_4/uL
same,RBC,[9],699 x10_4/ul
same,Ret,[9],3.8%
same,WBC,[9],100.3 x10_2/uL
same,Bas,[10],0%
same,Eos,[10],1.4%
same,Lym,[10],80%
same,MCH,[10],20.1 pg
same,MCHC,[10],36.1%
same,MCV,[10],55.6 fL
same,Neu,[10],15.4%
same,Plat,[10],108.4 x10_4/uL
same,RBC,[10],796.2 x10_4/ul
same,Ret,[10],1.8%
same,WBC,[10],95.4 x10_2/uL
same,KIDNEY_L,[9],1.3 g
same,KIDNEY_R,[9],1.3 g
same,KIDNEY_TOTAL,[9],2.6 g
same,KIDNEY_L,[10],1.4 g
same,KIDNEY_R,[10],1.4 g
same,KIDNEY_TOTAL,[10],2.8 g
same,LIVER,[10],14.8 g
same,ALP,[11],890.6 IU/L
same,ALT,[11],35.2 IU/L
same,AST,[11],66.2 IU/L
same,CRE,[11],0.4 mg/dL
same,Ca,[11],10.6 mg/dL
same,DBIL,[11],0.1 mg/dL
same,GLC,[11],218.4 mg/dL
same,IP,[11],7.8 mg/dL
same,K,[11],3.7 meq/L
same,LDH,[11],192.8 IU/L
same,Na,[11],140.8 meq/L
same,PL,[11],173.4 mg/dL
same,RALB,[11],3.4 g/dL
same,TBIL,[11],0.2 mg/dL
same,TC,[11],81.4 mg/dL
same,TG,[11],151.6 mg/dL
same,TP,[11],5.9 g/dL
same,gamma-GTP,[11],0.4 IU/L
same,ALP,[12],610.6 IU/L
same,ALT,[12],29.4 IU/L
same,AST,[12],61.4 IU/L
same,CRE,[12],0.4 mg/dL
same,DBIL,[12],0.088 mg/dL
same,GLC,[12],215.8 mg/dL
same,IP,[12],6.7 mg/dL
same,K,[12],3.5 meq/L
same,LDH,[12],165.4 IU/L
same,PL,[12],141.4 mg/dL
same,RALB,[12],3.4 g/dL
same,TBIL,[12],0.2 mg/dL
same,TP,[12],6.2 g/dL
same,gamma-GTP,[12],0.2 IU/L
